The text below walks through data of US7183061B2, “Method of expressing Heliothis ecdysone receptor fusion protein” (Syngenta Limited, priority 1996, dated 2007).

Assay [1] has as its target T1, glucocorticoid/Heliothis ecdysone chimeric receptor (UniProt O18473+P04150).
T1 sequence (P04150+O18473 with tags, fused parts or gaps): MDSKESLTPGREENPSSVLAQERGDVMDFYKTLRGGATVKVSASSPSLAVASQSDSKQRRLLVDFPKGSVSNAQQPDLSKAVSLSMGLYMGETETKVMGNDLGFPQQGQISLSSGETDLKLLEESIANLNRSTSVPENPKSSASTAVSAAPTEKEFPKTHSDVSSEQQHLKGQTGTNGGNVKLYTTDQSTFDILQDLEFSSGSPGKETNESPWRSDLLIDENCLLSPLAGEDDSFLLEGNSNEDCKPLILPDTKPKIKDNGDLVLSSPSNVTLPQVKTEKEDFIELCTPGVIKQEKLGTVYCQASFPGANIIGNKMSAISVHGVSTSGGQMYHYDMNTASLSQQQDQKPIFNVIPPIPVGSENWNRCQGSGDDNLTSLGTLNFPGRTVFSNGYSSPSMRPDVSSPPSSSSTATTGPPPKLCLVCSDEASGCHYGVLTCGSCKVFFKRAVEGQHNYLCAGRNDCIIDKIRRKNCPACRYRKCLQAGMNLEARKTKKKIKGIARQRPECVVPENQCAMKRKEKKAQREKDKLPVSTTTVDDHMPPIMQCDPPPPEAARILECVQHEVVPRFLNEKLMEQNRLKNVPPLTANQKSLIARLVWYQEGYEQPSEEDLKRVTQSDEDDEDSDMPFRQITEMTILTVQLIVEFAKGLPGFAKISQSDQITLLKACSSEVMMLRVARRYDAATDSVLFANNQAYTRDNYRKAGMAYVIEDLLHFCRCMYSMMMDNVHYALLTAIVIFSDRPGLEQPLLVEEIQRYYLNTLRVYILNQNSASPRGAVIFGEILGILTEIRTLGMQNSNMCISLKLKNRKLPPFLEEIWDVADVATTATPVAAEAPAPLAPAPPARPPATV
The assay is described as follows: HEK293 cells co-transfected with pcDNA3GRHEcR and pSWGRE4 (β-galactosidase reporter). Type of assay: cell-based, Heliothis virescens. Set-up: expressed in transfected cells; host or cells: HEK293 (A8). Conditions: co-transformed HEK293 cells (FIG. 28). Here is the method:
Transfections of mammalian cell lines (CHO-K1 Chinese hamster ovary) ATCC number CCL61 or cos-1 (Monkey cell line) were performed using either calcium phosphate precipitation (Gorman, Chapter 6 of “DNA cloning: a practical approach. Vol 2 D. M. Glover ed/.(1985) IRL Press, Oxford) or using LipofectAMINE (Gibco BRL Cat. No. 18324–012, following manufacturer's instructions). […] 293 cells were transfected using analogous methods.
The mammalian expression vector used in this experiment was pcDNA3 (Invitrogen). The GRHEcR 2.7 kb BamHI DNA fragment (isolated from pMF6GRHEcR) was introduced into the pcDNA3 BamHI vector. The recombinants were oriented by restriction enzyme mapping. The DNA sequence of the junctions was determined to ensure correct orientation and insertion (pcDNA3GRHEcR, FIG. 25).
The reporter plasmid for mammalian cell system was produced by taking pSWBGAL plasmid and replacing the CRESW SpeI/ClaI fragment for a synthetic 105 bp DNA fragment containing 4 copies of the glucocorticoid response element (GRE) and flanked by SpeI at the 5′ end and AflII at the 3′ end.
The two oligonucleotides were purified annealed and ligated to pSWBGAL SpeI/AflII to produce pSWGRE4 (FIG. 26).

For assay [2], the system named is HEcR with αRXR. As to the kind of experiment: Native HEcR reporter gene expression in HEK293 cells co-transfected with αRXR. The assay is classed as cell-based, Heliothis virescens. As to conditions: αRXR co-transfected along with effector and reporter. The text has this:
A third effector construct was made with the 5′ end sequences of pSK16.1 by PCR. The PCR approach involved PCR amplifying the 5′ end sequences using a 5′ oligonucleotide containing a HindIII restriction cloning site, the Kozak consensus sequence followed by nucleotide sequence encoding for a Methionine start and two Arginines to be added to the 5′ end of the amplified fragment: (16H3K 5′ […] 3′; SEQ ID NO: 28), the 3′ oligonucleotide used was HecrNdeI. The resulting fragment was restriction enzyme digested, gel purified and subcloned with an NdeI/NotI 19R fragment into pcDNA3 NdeI/NotI vector. The plasmid was named pcDNA3H3 KHEcR.
The reporter plasmid to be co-transfected with the expression vector contained 4 copies of the Hsp27 ecdysone response element (Riddihough and Pelham, 1987) fused to β-globin promoter and the β-Galactosidase gene. The tandem repeats of the ecdysone response element were synthesised as two complementary oligonucleotides which when annealed produced a double stranded DNA molecule flanked by an SpeI site at the 5′ end and a ClaI site at the 3′ end:
The resulting 135 bp DNA fragment was ligated to the vector pSWBGAL SpeI/ClaI resulting in pSWREcR4 (FIG. 8). The co-transfection of the two plasmids should result in B-galactosidase activity in the presence of ligand. […]

On to `CC(C)CC[C@@H](O)[C@](C)(O)[C@H]1CC[C@@]2(O)C3=CC(=O)[C@]4(O)C[C@@H](O)[C@@H](O)C[C@]4(C)[C@H]3[C@H](O)C[C@]12C` [Muristerone A], for which the “chemical induced reporter gene activity” value in assay [1] is “induction of reporter activity was observed”. For the same molecule, in assay [2], the “induction of reporter activity compared to the untreated cells” value is listed as 9 fold.

In the case of `CCc1ccc(C(=O)NN(C(=O)c2cc(C)cc(C)c2)C(C)(C)C)cc1` [RH5992, 3,5-dimethylbenzoic acid 1-1(1,1-dimethylethyl)-2(4-ethylbenzoyl)hydrazide], the “chemical induced reporter gene activity” value in assay [1] is “significant chemical induced reporter gene activity”. Further, the “induction of reporter activity compared to the untreated cells” value in assay [2] was found to be 9 fold.
